# Test results as given in ChEMBL document CHEMBL4130368, “Thienopyrimidine derivatives exert their anticancer efficacy via apoptosis induction, oxidative stress and mitotic catastrophe” (Eur J Med Chem, 2017).
# Active and inactive are the calls of the source. No cut-off for these calls is given here.
# How the values were obtained:
# [1] = tested on: A2780; assay: Antiproliferative activity against human A2780 cells after 72 hrs by MTT assay; type: functional, cell-based; conditions: A2780, 72 h
# [2] = tested on: CHO; assay: Cytotoxicity against CHO cells assessed as reduction in cell survival after 72 hrs by MTT assay; type: ADME, cell-based; conditions: Cricetulus griseus
# [3] = Selectivity index, ratio of IC50 for CHO cells to IC50 for human HCT15 cells; type: toxicity; conditions: Chinese hamster (CHO cells), CHO cells versus HCT15 cells, read-out: Ratio IC50
# [4] = Selectivity index, ratio of IC50 for CHO cells to IC50 for human LN229 cells; type: toxicity; conditions: Chinese hamster (CHO cells), CHO cells versus LN229 cells, read-out: Ratio IC50
# [5] = Selectivity index, ratio of IC50 for CHO cells to IC50 for human GBM10 cells; type: toxicity; conditions: Chinese hamster (CHO cells), CHO cells versus GBM10 cells, read-out: Ratio IC50
# [6] = tested on: 2008; assay: Inhibition of colony formation in human OV2008 cells at 1 to 2 uM after 24 hrs by crystal violet dye based assay; type: functional, cell-based
# [7] = tested on: A2780; assay: Inhibition of colony formation in human A2780 cells at 1 to 2 uM after 24 hrs by crystal violet dye based assay; type: functional, cell-based
# [8] = tested on: HCT-116; assay: Cell cycle arrest in human HCT116 cells assessed as accumulation at […] at 1 uM measured after overnight incubation by propidium iodide staining-based flow cytometry (reference value: 9.70%); type: functional
# [9] = tested on: HCT-116; assay: Cell cycle arrest in human HCT116 cells assessed as accumulation at G1 phase at 2 uM measured after overnight incubation by propidium iodide staining-based flow cytometry (reference value: 63.5%); type: functional
# [10] = tested on: HCT-116; assay: Cell cycle arrest in human HCT116 cells assessed as accumulation at G2 phase at 2 uM measured after overnight incubation by propidium iodide staining-based flow cytometry (reference value: 24%); type: functional
# [11] = tested on: 2008; assay: Cell cycle arrest in human OV2008 cells assessed as accumulation at subG1 phase at 1 uM measured after overnight incubation by propidium iodide staining-based flow cytometry (reference value: 2.64%); type: functional
# [12] = tested on: A2780; assay: Cell cycle arrest in human A2780 cells assessed as accumulation at G1 phase at 1 uM measured after overnight incubation by propidium iodide staining-based flow cytometry (reference value: 51.1%); type: functional
# [13] = tested on: A2780; assay: Cell cycle arrest in human A2780 cells assessed as accumulation at S phase at 1 uM measured after overnight incubation by propidium iodide staining-based flow cytometry (reference value: 15.2%); type: functional
# [14] = tested on: A2780; assay: Cell cycle arrest in human A2780 cells assessed as accumulation at G2 phase at 1 uM measured after overnight incubation by propidium iodide staining-based flow cytometry (reference value: 24.9%); type: functional
# [15] = tested on: A2780; assay: Cell cycle arrest in human A2780 cells assessed as accumulation at G1 phase at 2 uM measured after overnight incubation by propidium iodide staining-based flow cytometry (reference value: 51.1%); type: functional
# [16] = tested on: 2008; assay: Induction of cellular oxidative stress in human OV2008 cells assessed as increase in ROS levels at 0.5 to 4 uM after 48 hrs by DCFDA dye-based fluorescence microscopic method; type: functional, cell-based
# [17] = tested on: 2008; assay: Induction of mitotic catastrophe in human OV2008 cells assessed as formation of large with flattened cells at 0.5 to 2 uM measured after overnight incubation by DAPI-staining based microscopy; type: functional, cell-based
# [18] = tested on: HCT-116; assay: Induction of apoptosis in human HCT116 cells assessed as cell shrinkage at 0.5 to 2 uM measured after overnight incubation by DAPI-staining based microscopy; type: functional
# [19] = tested on: 2008; assay: Induction of apoptosis in human OV2008 cells assessed as cell shrinkage at 0.5 to 2 uM measured after overnight incubation by DAPI-staining based microscopy; type: functional
# [20] = tested on: HCT-116; assay: Induction of mitotic catastrophe in human HCT116 cells assessed as formation of de-condensed multiple micronuclei at 0.5 to 2 uM measured after overnight incubation by DAPI-staining based microscopy; type: functional, cell-based
# [21] = tested on: 2008; assay: Induction of mitotic catastrophe in human OV2008 cells assessed as formation of de-condensed multiple micronuclei at 0.5 to 2 uM measured after overnight incubation by DAPI-staining based microscopy; type: functional, cell-based
# [22] = tested on: HCT-116; assay: Induction of apoptosis in human HCT116 cells assessed as viable cells at 1 uM measured after overnight incubation by mitotracker red/alexa fluor-488 Annexin V staining-based flow cytometry (reference value: 89%); type: functional; conditions: read-out: Activity
# [23] = tested on: HCT-116; assay: Induction of apoptosis in human HCT116 cells assessed as late apoptotic cells at 1 uM measured after overnight incubation by mitotracker red/alexa fluor-488 Annexin V staining-based flow cytometry (reference value: 0%); type: functional
# [24] = tested on: HCT-116; assay: Induction of apoptosis in human HCT116 cells assessed as viable cells at 2 uM measured after overnight incubation by mitotracker red/alexa fluor-488 Annexin V staining-based flow cytometry (reference value: 89%); type: functional; conditions: read-out: Activity
# [25] = tested on: HCT-116; assay: Induction of apoptosis in human HCT116 cells assessed as early apoptotic cells at 2 uM measured after overnight incubation by mitotracker red/alexa fluor-488 Annexin V staining-based flow cytometry (reference value: 8.36%); type: functional
# [26] = tested on: HCT-116; assay: Induction of apoptosis in human HCT116 cells assessed as late apoptotic cells at 2 uM measured after overnight incubation by mitotracker red/alexa fluor-488 Annexin V staining-based flow cytometry (reference value: 0%); type: functional
# [27] = tested on: 2008; assay: Induction of apoptosis in human OV2008 cells assessed as early apoptotic cells at 1 uM measured after overnight incubation by mitotracker red/alexa fluor-488 Annexin V staining-based flow cytometry (reference value: 12.9%); type: functional
# [28] = tested on: 2008; assay: Induction of apoptosis in human OV2008 cells assessed as late apoptotic cells at 2 uM measured after overnight incubation by mitotracker red/alexa fluor-488 Annexin V staining-based flow cytometry (reference value: 0.255%); type: functional
# [29] = tested on: A2780; assay: Induction of apoptosis in human A2780 cells assessed as viable cells at 1 uM measured after overnight incubation by mitotracker red/alexa fluor-488 Annexin V staining-based flow cytometry (reference value: 78.1%); type: functional; conditions: read-out: Activity
# [30] = tested on: A2780; assay: Induction of apoptosis in human A2780 cells assessed as early apoptotic cells at 1 uM measured after overnight incubation by mitotracker red/alexa fluor-488 Annexin V staining-based flow cytometry (reference value: 11.9%); type: functional
# [31] = tested on: A2780; assay: Induction of apoptosis in human A2780 cells assessed as viable cells at 2 uM measured after overnight incubation by mitotracker red/alexa fluor-488 Annexin V staining-based flow cytometry (reference value: 78.1%); type: functional; conditions: read-out: Activity
# [32] = tested on: A2780; assay: Induction of apoptosis in human A2780 cells assessed as early apoptotic cells at 2 uM measured after overnight incubation by mitotracker red/alexa fluor-488 Annexin V staining-based flow cytometry (reference value: 11.9%); type: functional
# [33] = tested on: HCT-116; assay: Antiproliferative activity against bak deficient human HCT116 cells after 72 hrs by MTT assay; type: functional, cell-based; conditions: HCT-116, 72 h
# [34] = tested on: HCT-116; assay: Induction of morphological changes in human HCT116 cells at 0.1 to 3 uM after 68 hrs by microscopic method; type: functional, cell-based
# [35] = tested on: A2780; assay: Induction of morphological changes in human A2780 cells at 0.1 to 3 uM after 68 hrs by microscopic method; type: functional, cell-based
# [36] = tested on: A2780; assay: Induction of mitotic catastrophe in human A2780 cells assessed as multinuclear changes at 0.5 to 2 uM measured after overnight incubation by DAPI-staining based microscopy; type: functional, cell-based
smiles,measurement,setting,value
COc1ccc(-c2nc(O)c3c4c(sc3n2)CCCC4)cc1,IC50,[1],1200 nM
same,IC50,[2],14000 nM
same,selectivity ratio,[3],17 to 28
same,selectivity ratio,[4],17 to 28
same,selectivity ratio,[5],17 to 28
same,inhibition,[6],Dose-dependent effect
same,inhibition,[7],Dose-dependent effect
same,Activity,[8],12.3%
same,Activity,[9],29.5%
same,Activity,[10],54.8%
same,Activity,[11],4.17%
same,Activity,[12],20.2%
same,Activity,[13],10.4%
same,Activity,[14],57.8%
same,Activity,[15],15.5%
same,Activity,[16],Active
same,Activity,[17],Active
same,Activity,[18],Active
same,Activity,[19],Active
same,Activity,[20],Active
same,Activity,[21],Active
same,viability at 1 µM,[22],87%
same,Activity,[23],0%
same,viability at 2 µM,[24],71.1%
same,Activity,[25],25.9%
same,Activity,[26],0%
same,Activity,[27],20.3%
same,Activity,[28],0.057%
same,viability at 1 µM,[29],73.8%
same,Activity,[30],25.8%
same,viability at 2 µM,[31],42.9%
same,Activity,[32],51.2%
same,IC50,[33],1400 nM
same,Activity,[34],Active
same,Activity,[35],Active
same,Activity,[36],Active
